Test: Body weight evolution of treated mice
Assay type: in vivo
Procedure: The mice enrolled were FVB-Tg(Sod1*G86R)M1Jwg/J mice from JAX laboratories. Animals were group-housed (10 per cage) in a temperature-controlled room (22±2° C.) with a 12/12-hour light/dark cycle. Food and water were feed ad-libitum. […] Breeding was realized (since 2013 may) in SOPF facility and genotyping is performed by qPCR (from tail biopsy). Animal are identified with earrings.
Mice were handled and weighted at the age of 60 days. Canula implantation in intra cerebro-ventricular (ICV) by stereotaxie start at this date and mice are acclimated during 1 week.
(Gurney and al, Neurology, 1998). Then they were evaluated, twice a week (i.e. body weight and neuroscore), from the age of 67 days to their death.
Two different treatments are performed from 75 days to death: • HT_pHPL prepared as described in example 1 and at 1 g/L, pH 7.4 versus vehicle. The dose of HT_pHPL administrated by intermittent ICV was 4 μL, three times a week at rate of 0.5 μL/min. […]

Nc1nc2ccc(OC(F)(F)F)cc2s1 [Riluzole]
day of body weight decrease (Tg mice FVB-Tg(Sod1*G86R)): 88 days
effect on body weight evolution (WT mice): no effect
